Columns and labels:
Type in all cases: cell-based
[1] = tested on: HAP1 MTAP-deleted cell line; test: Viability assay (CellTiter-Glo), HAP1 MTAP-deleted; conditions: Homo sapiens, 168 h, HAP1 MTAP-deleted cells, 7 days
Summary of the method: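 HAP1 MTAP-deleted and MTAP-intact cells seeded, then dosed next day (n=3, 0.2% DMSO) and grown 7 days. Viability by CellTiter-Glo luminescence, expressed as % of DMSO control per cell line.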

[2] = tested on: SDMA (PRMT5 activity) in HAP1 MTAP-intact cell line; test: SDMA in-cell western assay, HAP1 MTAP-intact; conditions: Homo sapiens, HAP1, 24 h, SDMA in-cell western, HAP1 MTAP-intact cells, 24 hours compound incubation
[3] = tested on: SDMA (PRMT5 activity) in HAP1 MTAP-deleted cell line; test: SDMA in-cell western assay, HAP1 MTAP-deleted; conditions: for IC50 / IC90: Homo sapiens, SDMA in-cell western, HAP1 MTAP-deleted cells, 24 hours compound incubation; for Hap1 MTAP intact/deleted ratio: ratio of SDMA IC50 in HAP1 MTAP-intact to HAP1 MTAP-deleted cell line

Row | IC50 [2] | IC50 [3] | IC90 [3] | SMILES | IC50 [1] | Hap1 MTAP intact/deleted ratio [3]
1 | > 0.05 µM | < 0.005 µM | < 0.075 µM | CCc1cc(NC(=O)C(=O)N2C[C@@H](C)CC[C@@H]2c2cccc(OC[C@H](C)N(C)C)c2)cnc1N [Compound 66, N-(6-amino-5-ethylpyridin-3-yl)-2-((2R,5S)-2-(3-((S)-2-(dimethylamino)propoxy)phenyl)-5-methylpiperidin-1-yl)-2-oxoacetamide] | < 0.1 µM | A (“A” indicates an IC50 ratio greater than or equal to 30 fold)
2 | > 0.05 µM | 0.005 to 0.05 µM | > 0.125 µM | CCc1cc(NC(=O)C(=O)N2C[C@@H](C)CC[C@@H]2c2ccc3nn(CCN(C)C)cc3c2)cnc1N [Compound 72] | < 0.1 µM | A (“A” indicates an IC50 ratio greater than or equal to 30 fold)
3 | > 0.05 µM | 0.005 to 0.05 µM | > 0.125 µM | CCc1cc(NC(=O)C(=O)N2C[C@@H](C)CC[C@@H]2c2ccc3cccnc3c2)cnc1N [Compound 76, N-(6-amino-5-ethylpyridin-3-yl)-2-((2R,5S)-5-methyl-2-(quinolin-7-yl)piperidin-1-yl)-2-oxoacetamide] | 0.1 to 1 µM | A (“A” indicates an IC50 ratio greater than or equal to 30 fold)

The remaining lines, values behind:

Row | SMILES | IC50 [2] | IC50 [3] | IC90 [3] | IC50 [1] | Hap1 MTAP intact/deleted ratio [3]
4 | CCc1cc(NC(=O)C(=O)N2C[C@@H](C)CC[C@@H]2c2ccc3cc(C#N)c(C4CCN(C)CC4)nc3c2)cnc1N [Compound 63, N-(6-amino-5-ethylpyridin-3-yl)-2-((2R,5S)-2-(3-cyano-2-(1-methylpiperidin-4-yl)quinolin-7-yl)-5-methylpiperidin-1-yl)-2-oxoacetamide] | > 0.05 µM | < 0.005 µM | < 0.075 µM | < 0.1 µM | A (“A” indicates an IC50 ratio greater than or equal to 30 fold)
5 | COc1ncc(NC(=O)C(=O)N2C[C@@H](C)CC[C@@H]2c2ccc3sc([C@H]4CN(C)C(C)(C)C4)nc3c2)cc1C(N)=O [Compound 65, 2-methoxy-5-[[2-oxo-2-[(2R,5S)-5-methyl-2-[2-[(3R)-1,5,5-trimethylpyrrolidin-3-yl]-1,3-benzothiazol-5-yl]-1-piperidyl]acetyl]amino]pyridine-3-carboxamide] | > 0.05 µM | < 0.005 µM | < 0.075 µM | < 0.1 µM | B (“B” indicates an IC50 ratio greater than or equal to 15 fold but lower than 30 fold)
6 | COc1ncc(NC(=O)C(=O)N2C[C@@H](C)CC[C@@H]2c2ccc3sc([C@]45CCC(C4)N(C)C5)nc3c2)cc1C(N)=O [Compound 71, 2-methoxy-5-(2-((2R,5S)-5-methyl-2-(2-((4R)-2-methyl-2-azabicyclo[2.2.1]heptan-4-yl)benzo[d]thiazol-5-yl)piperidin-1-yl)-2-oxoacetamido)nicotinamide] | > 0.05 µM | < 0.005 µM | < 0.075 µM | < 0.1 µM | B (“B” indicates an IC50 ratio greater than or equal to 15 fold but lower than 30 fold)
7 | CCc1cc(NC(=O)C(=O)N2CCCC[C@@H]2c2ccc3sc(C4CCN(C)CC4)nc3c2)cnc1N [Compound 73, N-(6-amino-5-ethylpyridin-3-yl)-2-(2-(2-(1-methylpiperidin-4-yl)benzo[d]thiazol-5-yl)piperidin-1-yl)-2-oxoacetamide] | > 0.05 µM | 0.005 to 0.05 µM | 0.075 to 0.125 µM | 0.1 to 1 µM | A (“A” indicates an IC50 ratio greater than or equal to 30 fold)
8 | CCc1cc(NC(=O)C(=O)N2C[C@@H](C)CC[C@@H]2c2ccc3sc([C@@H]4CCN(C)CC4(C)C)nc3c2)cnc1N [Compound 79, N-(6-amino-5-ethylpyridin-3-yl)-2-((5S)-5-methyl-2-(2-(1,3,3-trimethylpiperidin-4-yl)benzo[d]thiazol-5-yl)piperidin-1-yl)-2-oxoacetamide] | 0.005 to 0.05 µM | < 0.005 µM | < 0.075 µM | < 0.1 µM | C (“C” indicates an IC50 ratio of less than 15 fold)
